According to patent publication US20250275541A1, “NEMATOSTATIC COMPOSITIONS, AND USE THEREOF IN AGRICULTURE” (AGRO INNOVATION INTERNATIONAL, priority 2019, published 2025):

Legend:
Meloidogyne javanica [1] = assay: Mobility of Meloidogyne javanica in the soil microcosm, different carboxylic acids (Example 3); conditions: Fluopyram 24 ppm (positive control), 5 h incubation
Description: Juvenile nematodes of M. javanica were deposited on the surface of a column of sterile soil 2 cm thick resting on a sieve (cotton wool), 1 hour before adding the test products in order to allow them time to move in the porosity of the soil. The nematodes will be distributed randomly in the layer of soil, depending on their mobility. […] The mobile nematodes pass through the column of soil and migrate naturally into the water. The nematodes passing into the water can be counted.
If the concentration of test product considered is inhibitory for the mobility of the nematodes in the presence of soil, the nematodes are kept in the column of soil and delayed in their migration into the water. The time for emergence of the nematodes from the column of soil is longer as the concentration of nematostatic product increases.
The method is identical to that described in Example 1. […]

Meloidogyne javanica [2] = assay: Mobility of Meloidogyne javanica in the soil microcosm (Example 1)
Description: The nematodes will be distributed randomly in the layer of soil, depending on their mobility. After adding the test products and incubating for 6 h, the column of soil and the sieve were placed in a tube containing water. The mobile nematodes pass through the column of soil and migrate naturally into the water. The nematodes passing into the water can be counted. If the concentration of test product considered is inhibitory for the mobility of the nematodes in the presence of soil, the nematodes are kept in the column of soil and delayed in their migration into the water. The time for emergence of the nematodes from the column of soil is longer as the concentration of nematostatic product increases.

[3] = calcium formate 780 ppm alone, or with RD2 100 or 1000 ppm, 6 h incubation, kinetics over 144 h

For `O=C(NCCc1ncc(C(F)(F)F)cc1Cl)c1ccccc1C(F)(F)F` [Fluopyram], the “nematodes that had left the microcosm of the soil after 160 hours” value (Meloidogyne javanica [1]) was “no nematode had left the microcosm”.

For `O=C[O-].O=C[O-].[Ca+2]` [calcium formate], the “nematodes that left the microcosm at 3 days” value (Meloidogyne javanica [2]; at 3 days, calcium formate 780 ppm alone, or calcium formate 780 ppm + RD2 1000 ppm) was 92%, the “nematodes affected reversibly in their mobility” value (Meloidogyne javanica [2]; [3]) was 62% and the “nematodes not affected in their mobility” value (Meloidogyne javanica [2]; [3]) was 14%. The “nematodes affected irreversibly at 6 days” value (Meloidogyne javanica [2]; calcium formate 780 ppm alone, or with RD2 100 or 1000 ppm, at 6 days) was 24%.
